In PubChem BioAssay (NCI):
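Each compound was tested at five concentrations against cells in 96-well plates for 48 hours. TGI marks complete inhibition of growth.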

Key:
Assay in all cases: NCI anticancer screen, dose series, 48 h
SK-OV-3 ovarian = test system: SK-OV-3 ovarian
UACC-257 melanoma = test system: UACC-257 melanoma
HCC-2998 colon = test system: HCC-2998 colon
HOP-62 NSCLC = test system: HOP-62 NSCLC
NCI-H460 lung = test system: NCI-H460 lung
COLO 205 colon = test system: COLO 205 colon
SK-MEL-5 melanoma = test system: SK-MEL-5 melanoma
786-0 renal = test system: 786-0 renal
MDA-N = test system: MDA-N
MCF7 breast = test system: MCF7 breast
IGROV1 ovarian = test system: IGROV1 ovarian
MDA-MB-231 breast = test system: MDA-MB-231 breast
MDA-MB-435 = test system: MDA-MB-435
SNB-19 CNS = test system: SNB-19 CNS
A549 NSCLC = test system: A549 NSCLC
OVCAR-4 ovarian = test system: OVCAR-4 ovarian
CAKI-1 renal = test system: CAKI-1 renal
PC-3 prostate = test system: PC-3 prostate
NCI-H522 lung = test system: NCI-H522 lung
OVCAR-5 ovarian = test system: OVCAR-5 ovarian
SK-MEL-2 melanoma = test system: SK-MEL-2 melanoma
HT29 colon = test system: HT29 colon
OVCAR-3 ovarian = test system: OVCAR-3 ovarian
BT-549 breast = test system: BT-549 breast
ACHN renal = test system: ACHN renal
SF-295 CNS = test system: SF-295 CNS
HCT-116 colon = test system: HCT-116 colon
NCI/ADR-RES ovarian = test system: NCI/ADR-RES ovarian
RXF 393 renal = test system: RXF 393 renal
MALME-3M melanoma = test system: MALME-3M melanoma
HOP-92 NSCLC = test system: HOP-92 NSCLC
U251 CNS = test system: U251 CNS
A498 renal = test system: A498 renal
CCRF-CEM leukemia = test system: CCRF-CEM leukemia
UO-31 renal = test system: UO-31 renal
EKVX NSCLC = test system: EKVX NSCLC
SK-MEL-28 melanoma = test system: SK-MEL-28 melanoma
TK-10 renal = test system: TK-10 renal
UACC-62 melanoma = test system: UACC-62 melanoma
HS 578T breast = test system: HS 578T breast
M14 melanoma = test system: M14 melanoma
SF-268 CNS = test system: SF-268 CNS
OVCAR-8 ovarian = test system: OVCAR-8 ovarian
RPMI-8226 leukemia = test system: RPMI-8226 leukemia
MOLT-4 leukemia = test system: MOLT-4 leukemia
DU-145 prostate = test system: DU-145 prostate
K-562 leukemia = test system: K-562 leukemia
SNB-75 CNS = test system: SNB-75 CNS
NCI-H23 lung = test system: NCI-H23 lung
KM12 colon = test system: KM12 colon
SW-620 colon = test system: SW-620 colon
HCT-15 colon = test system: HCT-15 colon
NCI-H226 lung = test system: NCI-H226 lung
LOX IMVI melanoma = test system: LOX IMVI melanoma
SN12C renal = test system: SN12C renal
SR leukemia = test system: SR leukemia
HL-60(TB) leukemia = test system: HL-60(TB) leukemia
SF-539 CNS = test system: SF-539 CNS

Measured: TGI

Cc1cc(-c2ccc[nH]2)on1
> 100 µM: SK-OV-3 ovarian | UACC-257 melanoma | HCC-2998 colon | HOP-62 NSCLC | NCI-H460 lung | COLO 205 colon | SK-MEL-5 melanoma | 786-0 renal | MDA-N | MCF7 breast | IGROV1 ovarian | MDA-MB-231 breast | MDA-MB-435 | SNB-19 CNS | A549 NSCLC | OVCAR-4 ovarian | CAKI-1 renal | PC-3 prostate | NCI-H522 lung | OVCAR-5 ovarian | SK-MEL-2 melanoma | HT29 colon | OVCAR-3 ovarian | BT-549 breast | ACHN renal | SF-295 CNS | HCT-116 colon | NCI/ADR-RES ovarian | RXF 393 renal | MALME-3M melanoma | HOP-92 NSCLC | U251 CNS | A498 renal | CCRF-CEM leukemia | UO-31 renal | EKVX NSCLC | SK-MEL-28 melanoma | TK-10 renal | UACC-62 melanoma | HS 578T breast | M14 melanoma | SF-268 CNS | OVCAR-8 ovarian | RPMI-8226 leukemia | MOLT-4 leukemia | DU-145 prostate | K-562 leukemia | SNB-75 CNS | NCI-H23 lung | KM12 colon | SW-620 colon | HCT-15 colon

Cc1cc(C)c2ccc(N3CCNCC3)nc2n1
> 100 µM: NCI-H226 lung | SK-OV-3 ovarian | LOX IMVI melanoma | UACC-257 melanoma | HCC-2998 colon | HOP-62 NSCLC | NCI-H460 lung | COLO 205 colon | 786-0 renal | MDA-N | MCF7 breast | IGROV1 ovarian | MDA-MB-231 breast | MDA-MB-435 | SNB-19 CNS | A549 NSCLC | OVCAR-4 ovarian | CAKI-1 renal | PC-3 prostate | NCI-H522 lung | OVCAR-5 ovarian | SK-MEL-2 melanoma | HT29 colon | OVCAR-3 ovarian | BT-549 breast | ACHN renal | SF-295 CNS | HCT-116 colon | NCI/ADR-RES ovarian | MALME-3M melanoma | HOP-92 NSCLC | U251 CNS | SN12C renal | SR leukemia | CCRF-CEM leukemia | UO-31 renal | EKVX NSCLC | HL-60(TB) leukemia | SK-MEL-28 melanoma | TK-10 renal | UACC-62 melanoma | HS 578T breast | M14 melanoma | SF-268 CNS | OVCAR-8 ovarian | RPMI-8226 leukemia | MOLT-4 leukemia | DU-145 prostate | K-562 leukemia | SNB-75 CNS | NCI-H23 lung | KM12 colon | SF-539 CNS | SW-620 colon | HCT-15 colon
